Laboratory results as given in patent US11008323B2, “Substituted tricyclic 1,4-benzodiazepinone derivatives as allosteric modulators of group II metabotropic glutamate receptors” (Domain Therapeutics, priority 2015, dated 2021).

Target: T1, human mGluR3 (hmGluR3) (Homo sapiens, UniProt Q14832)
T1 construct: expressed in transfected cells; host or cells: HEK-293 cells, transient co-transfection by electroporation
Experiment: Human mGluR3 positive allosteric modulator evaluation using Ca++ functional assay
Format: cell-based
Conditions: hmGluR3 transiently over-expressed in HEK-293 cells; stimulated by EC50 glutamate concentration; intracellular Ca2+ (Fluo4AM, FLIPR Tetra)
Description: Compounds of the present invention were tested successively for their agonist and positive allosteric modulator activities on human mGluR3 (hmGluR3) transiently over-expressed in HEK-293 cells. Compounds exert agonist activity if they are able to activate hmGluR3 by themselves, i.e., in absence of the endogenous agonist glutamate; and they exert positive allosteric modulator activity if they increase the action of the endogenous agonist glutamate.
HEK-293 cells were maintained in Modified Eagle's Medium supplemented with 10% Foetal Calf Serum, 1% Penicillin/Streptomycin and 1% non-essential amino acids at 37° C./5% CO2.
Cells were co-transfected by electroporation with four DNA plasmids encoding hmGluR3, a chimeric G protein allowing redirection of the activation signal toward intracellular calcium pathway, and two glutamate transporters so as to decrease extracellular glutamate levels and avoid receptor desensitization (Brabet I et al., Neuropharmacology 37(8), 1043-51, 1998). After transfection, cells were seeded in 75 cm^2 culture flasks, and cultured for 24 h.
Receptor activity was detected by changes in intracellular calcium measured using the fluorescent Ca^2+ sensitive dye, Fluo4AM (Molecular Probes).
The day of the assay, medium was aspirated and replaced during 3 hrs by freshly prepared buffer B (HBSS 1×, Hepes 20 mM, MgSO4-7H2O 1 mM, Na2CO3 3.3 mM, CaCl2-2H2O 1.3 mM, 0.5% BSA, Probenecid 2.5 mM). Then, cells were loaded at 37° C./5% CO2 for 1.5 hrs with buffer B containing 1 μM Fluo4AM, 0.1 mg/mL Pluronic Acid, 7 μg/mL Glutamate Pyruvate Transaminase and 2 mM sodium pyruvate. Afterwards cells were washed with buffer B. Cells were then detached from the 75 cm^2 culture flasks with Accutase® (5 min incubation at 37° C.), centrifuged (5 min at 840 rpm), resuspended in buffer B and finally seeded at a density of 30,000 cells/well in black-walled clear-bottom 384-well plates. Addition of compounds on cells and intracellular Ca^2+ measurements (excitation 485 nm, emission 525 nm) were performed by the fluorescence microplate reader FLIPR Tetra (Molecular Devices).
Agonist and positive allosteric modulator activities of compounds were consecutively evaluated on the same cells plate. Agonist activity was first tested during 10 min with the addition of compound alone on the cells. Then, the cells were stimulated by an EC50 glutamate concentration and fluorescence was recorded for additional 3 min. EC50 glutamate concentration is the concentration giving 50% of the maximal glutamate response. Agonist and/or positive allosteric modulator activity(ies) were evaluated in comparison to basal signal or signal evoked by EC50 glutamate concentration alone, respectively.
For potency determination, a dose-response test was performed using 20 concentrations of each compound of the invention. Dose-response curves were fitted using the sigmoïdal dose-response (variable slope) analysis in XLfit Scientific Curve Fitting for Excel (IDBS). EC50 of agonist/EC50 of positive allosteric modulator activity(ies) were calculated. Dose-response experiments were all performed in duplicate, two times independently.

T1 sequence (Q14832 23-879): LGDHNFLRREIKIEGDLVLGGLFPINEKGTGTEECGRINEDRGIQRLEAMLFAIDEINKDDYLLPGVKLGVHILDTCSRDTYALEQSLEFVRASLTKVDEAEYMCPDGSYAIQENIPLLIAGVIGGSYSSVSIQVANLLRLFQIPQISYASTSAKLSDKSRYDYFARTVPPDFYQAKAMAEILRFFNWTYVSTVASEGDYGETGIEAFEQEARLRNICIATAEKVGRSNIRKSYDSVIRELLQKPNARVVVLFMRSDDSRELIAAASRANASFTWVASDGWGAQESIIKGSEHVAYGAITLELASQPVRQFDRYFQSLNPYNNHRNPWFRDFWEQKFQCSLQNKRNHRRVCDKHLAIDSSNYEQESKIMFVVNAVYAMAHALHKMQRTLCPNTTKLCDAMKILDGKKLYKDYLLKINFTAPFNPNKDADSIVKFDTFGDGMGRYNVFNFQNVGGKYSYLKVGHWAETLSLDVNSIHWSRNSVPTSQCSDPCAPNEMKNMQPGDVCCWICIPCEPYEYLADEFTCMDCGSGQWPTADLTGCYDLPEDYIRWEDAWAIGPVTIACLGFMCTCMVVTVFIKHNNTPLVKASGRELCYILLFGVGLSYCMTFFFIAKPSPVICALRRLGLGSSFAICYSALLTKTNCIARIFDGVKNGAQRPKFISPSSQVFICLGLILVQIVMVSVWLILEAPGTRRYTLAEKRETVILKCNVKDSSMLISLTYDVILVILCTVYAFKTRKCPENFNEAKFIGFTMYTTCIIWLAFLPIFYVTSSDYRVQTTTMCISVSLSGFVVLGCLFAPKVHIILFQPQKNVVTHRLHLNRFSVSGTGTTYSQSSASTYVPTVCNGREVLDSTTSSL

For Cc1ncccc1-c1ccc2c(c1)-n1cc(-c3cnc[nH]3)cc1C(=O)N(C)C21CC1 [Example 183], the EC50 was under 100 nM.
In the case of Cc1ncccc1-c1ccc2c(c1)-n1c(cc(Cl)c1F)C(=O)N(C)C21CC1 [Example 83, 9-(2-Methyl-pyridin-3-yl)-2-chloro-1-fluoro-5-methyl-spiro[benzo[f]pyrrolo[1,2-a][1,4]diazepine-6,1′-cyclopropan]-4(5H)-one], the EC50 is reported as under 100 nM.
Work on Cc1ncccc1-c1ccc2c(c1)-n1cc(-c3ccccc3)nc1C(=O)N(C)C2 [Example 166, 5-Methyl-9-(2-methylpyridin-3-yl)-2-phenyl-5,6-dihydro-4H-benzo[f]imidazo[1,2-a][1,4]diazepin-4-one] yielded an EC50 of 100 to 1000 nM.
Cc1ncccc1-c1ccc2c(c1)-n1cc(C(F)F)cc1C(=O)N(C)C21CC1 [Example 201] gave an EC50 of under 100 nM.
CN(C)c1ccc(-c2ccc3c(c2)-n2cc(-c4ccccc4)cc2C(=O)N(C)C32CC2)cn1 [Example 114, 5-Methyl-2-phenyl-9-(6-dimethylamino-pyridin-3-yl)-spiro[benzo[f]pyrrolo[1,2-a][1,4]diazepine-6,1′-cyclopropan]-4(5H)-one] showed an EC50 of under 100 nM.
Cc1ccc(-c2ccc3c(c2)-n2cccc2C(=O)N(C)C32CC2)c(C)n1 [Example 56, 5-Methyl-9-(2,6-dimethylpyridin-3-yl)-spiro[benzo[f]pyrrolo[1,2-a][1,4]diazepine-6,1′-cyclopropan]-4(5H)-one] was tested, and the EC50 was under 100 nM.
In the case of CN1C(=O)c2cccn2-c2ccc(Br)cc2C12CC2 [Example 13, 8-Bromo-5-methyl-spiro[benzo[f]pyrrolo[1,2-a][1,4]diazepine-6,1′-cyclopropan]-4(5H)-one], the EC50 is reported as over 1000 nM.
Cc1ncccc1-c1ccc2c(c1)-n1ccnc1C(=O)N(C)C2 [Example 216, 5-Methyl-9-(2-methylpyridin-3-yl)-5,6-dihydro-4H-benzo[f]imidazo[1,2-a][1,4]diazepin-4-one] showed an EC50 of over 1000 nM.
CN1C(=O)c2cccn2-c2cc(-c3cccnc3C3CC3)ccc2C12CC2 [Example 62, 5-Methyl-9-(2-cyclopropylpyridin-3-yl)-spiro[benzo[f]pyrrolo[1,2-a][1,4]diazepine-6,1′-cyclopropan]-4(5H)-one] showed an EC50 of 100 to 1000 nM.
CCC1c2ccc(Br)cc2-n2cccc2C(=O)N1C (stereo not drawn) [Example 214, 9-Bromo-5-methyl-6-ethyl-5,6-dihydro-benzo[f]pyrrolo[1,2-a][1,4]diazepin-4-one] gave an EC50 of over 1000 nM.
Cc1ccc(-c2ccc3c(c2)-n2cc(-c4ccnn4C)cc2C(=O)N(C)C32CC2)cn1 [Example 159] showed an EC50 of under 100 nM.
With Cc1ccc(-c2ccc3c(c2)-n2cc(-c4ccccc4)cc2C(=O)N(C)C32CC2)cn1 [Example 103, 5-Methyl-2-phenyl-9-(6-methyl-pyridin-3-yl)-spiro[benzo[f]pyrrolo[1,2-a][1,4]diazepine-6,1′-cyclopropan]-4(5H)-one] the EC50 was under 100 nM.
With CN1C(=O)c2cccn2-c2cc(-c3cnc(N)c(C(F)(F)F)c3)ccc2C12CC2 [Example 40, 5-Methyl-9-(6-amino-5-trifluoromethyl-pyridin-3-yl)-spiro[benzo[f]pyrrolo[1,2-a][1,4]diazepine-6,1′-cyclopropan]-4(5H)-one] the EC50 was over 1000 nM.
CN1C(=O)c2cccn2-c2cc(Br)ccc2C12CC2 [Example 1, 9-Bromo-5-methyl-spiro[benzo[f]pyrrolo[1,2-a][1,4]diazepine-6,1′-cyclopropan]-4(5H)-one] gave an EC50 of 100 to 1000 nM.
Compound Cc1ncccc1-c1ccc2c(c1)-n1cccc1C(=O)N(C)C2C (stereo not drawn) [Example 218, 5,6-Dimethyl-9-(2-methyl-pyridin-3-yl)-5,6-dihydro-benzo[f]pyrrolo[1,2-a][1,4]diazepin-4-one] has an EC50 of 100 to 1000 nM.
With CCCc1ncccc1-c1ccc2c(c1)-n1cccc1C(=O)N(C)C21CC1 [Example 61, 5-Methyl-9-(2-propylpyridin-3-yl)-spiro[benzo[f]pyrrolo[1,2-a][1,4]diazepine-6,1′-cyclopropan]-4(5H)-one] the EC50 was under 100 nM.
For Cc1ccncc1-c1ccc2c(c1)-n1cc(-c3ccccc3)cc1C(=O)N(C)C21CC1 [Example 101, 5-Methyl-2-phenyl-9-(4-methyl-pyridin-3-yl)-spiro[benzo[f]pyrrolo[1,2-a][1,4]diazepine-6,1′-cyclopropan]-4(5H)-one], the EC50 was 100 to 1000 nM.
Work on Cc1ncccc1-c1ccc2c(c1)-n1nc(-c3ccccc3)cc1C(=O)N(C)C21CC1 [Example 125, 9-(2-Methyl-pyridin-3-yl)-5-methyl-2-phenyl-spiro[benzo[f]pyrazolo[1,5-a][1,4]diazepine-6,1′-cyclopropan]-4(5H)-one] yielded an EC50 of under 100 nM.
CCc1ncccc1-c1ccc2c(c1)-n1cc(-c3ccnn3C)cc1C(=O)N(C)C21CC1 [Example 163] was tested, and the EC50 was under 100 nM.
In the case of Cc1cc(-c2ccc3c(c2)-n2nc(-c4ccccc4)cc2C(=O)N(C)C32CC2)cc(C)n1 [Example 121, 9-(2,6-Dimethyl-pyridin-4-yl)-5-methyl-2-phenyl-spiro[benzo[f]pyrazolo[1,5-a][1,4]diazepine-6,1′-cyclopropan]-4(5H)-one], the EC50 is reported as 100 to 1000 nM.
In the case of CN1C(=O)c2cc(Cl)cn2-c2cc(Br)ccc2C12CC2 [Example 5, 9-Bromo-2-chloro-5-methyl-spiro[benzo[f]pyrrolo[1,2-a][1,4]diazepine-6,1′-cyclopropan]-4(5H)-one], the EC50 is reported as over 1000 nM.
Cc1ncccc1-c1cccc2c1-n1cccc1C(=O)N(C)C21CC1 [Example 92, 10-(2-Methyl-pyridin-3-yl)-5-methyl-spiro[benzo[f]pyrrolo[1,2-a][1,4]diazepine-6,1′-cyclopropan]-4(5H)-one] was tested, and the EC50 was over 1000 nM.
Compound CN1C(=O)c2cc(-c3ccccc3)nn2-c2cc(-c3ccccc3Cl)ccc2C12CC2 [Example 131, 9-(2-Chloro-phenyl)-5-methyl-2-phenyl-spiro[benzo[f]pyrazolo[1,5-a][1,4]diazepine-6,1′-cyclopropan]-4(5H)-one] has an EC50 of over 1000 nM.
With CN1C(=O)c2cccn2-c2cc(-c3cccnc3)ccc2C12CC2 [Example 23, 5-Methyl-9-(pyridin-3-yl)-spiro[benzo[f]pyrrolo[1,2-a][1,4]diazepine-6,1′-cyclopropan]-4(5H)-one] the EC50 was 100 to 1000 nM.
In the case of CCC1c2ccc(-c3cccnc3C)cc2-n2cccc2C(=O)N1C (stereo not drawn) [Example 220, 6-Ethyl-5-methyl-9-(2-methyl-pyridin-3-yl)-5,6-dihydro-benzo[f]pyrrolo[1,2-a][1,4]diazepin-4-one], the EC50 is reported as 100 to 1000 nM.
Work on COCc1cc2n(c1)-c1cc(-c3ccc(C)nc3)ccc1C1(CC1)N(C)C2=O [Example 205] yielded an EC50 of under 100 nM.
CCN1Cc2ccc(-c3cccnc3C)cc2-n2cc(-c3ccccc3)nc2C1=O [Example 167, 5-Ethyl-9-(2-methylpyridin-3-yl)-2-phenyl-5,6-dihydro-4H-benzo[f]imidazo[1,2-a][1,4]diazepin-4-one] gave an EC50 of over 1000 nM.
Compound Cc1ncccc1-c1ccc2c(c1)-n1cc(-c3cnco3)cc1C(=O)N(C)C21CC1 [Example 182] has an EC50 of under 100 nM.
CN1C(=O)c2cccn2-c2cc(Br)cc(F)c2C12CC2 [Example 7, 9-Bromo-7-fluoro-5-methyl-spiro[benzo[f]pyrrolo[1,2-a][1,4]diazepine-6,1′-cyclopropan]-4(5H)-one] was tested, and the EC50 was over 1000 nM.
Cc1ccc(-c2ccc3c(c2)-n2cc(-c4ccccc4)cc2C(=O)N(C)C32CC2)c(C)n1 [Example 107, 5-Methyl-2-phenyl-9-(2,6-dimethyl-pyridin-3-yl)-spiro[benzo[f]pyrrolo[1,2-a][1,4]diazepine-6,1′-cyclopropan]-4(5H)-one] gave an EC50 of under 100 nM.
